Starred links: 1 amine or outer side, 2 acyl side, 3 side chain; linkers in the order of their positions; H or OH if unused. Residues, ends and D or L forms follow the SMILES beside them. Groups on a side chain read outwards from the residue. *: point of attachment. C20 diacid = O=C(O)CCCCCCCCCCCCCCCCCCC(=O)*; γGlu = O=C(O)[C@H](CCC(=O)[*:2])N[*:1]
Columns and labels:
human Y5 receptor = biological target: T1, human Y5 receptor (Homo sapiens, UniProt Q15761); assay: NPY receptor functional assay (cAMP, HEK-CNG cells, ACTOne membrane potential dye); assay type: cell-based; details: NPY5R pEC50, HEK-CNG cells; standard NPY; species (human or rat) not given
T1 sequence (Q15761 1-445): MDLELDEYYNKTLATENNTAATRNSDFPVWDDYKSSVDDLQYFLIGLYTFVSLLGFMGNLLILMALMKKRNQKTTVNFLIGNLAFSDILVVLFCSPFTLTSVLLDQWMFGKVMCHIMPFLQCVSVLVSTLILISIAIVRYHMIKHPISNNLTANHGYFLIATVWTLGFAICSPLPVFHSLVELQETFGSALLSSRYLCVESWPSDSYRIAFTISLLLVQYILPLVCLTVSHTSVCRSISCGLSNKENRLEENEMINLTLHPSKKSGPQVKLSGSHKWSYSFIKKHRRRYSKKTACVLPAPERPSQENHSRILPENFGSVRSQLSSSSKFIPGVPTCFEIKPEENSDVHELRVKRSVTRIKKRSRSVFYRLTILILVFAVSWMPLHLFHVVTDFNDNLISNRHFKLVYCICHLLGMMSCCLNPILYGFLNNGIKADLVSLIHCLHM
Source text: (§1) The NPY family of G-protein coupled receptors include Y1, Y2, Y4, and Y5 in humans and rats. […] Following agonist binding, the receptor-G protein complex activates a downstream intracellular signaling cascade which leads to inhibition of adenylate cyclase and a reduction in intracellular cAMP levels.
(§2) HEK-CNG cells stably expressing the human or rat Y1, Y2, Y4 or Y5 receptors (Codex Biosolutions) were used to characterize the functional potency of peptide agonists using the ActOne™ membrane potential dye kit (Codex Biosolutions). In addition to each NPY receptor, each cell line encodes a proprietary exogenous Cyclic Nucleotide-Gated (CNG) channel (Codex Biosolutions). The channel is activated by elevated intracellular levels of cAMP, resulting in ion flux and cell membrane depolarization which can be detected with a calcium sensitive dye or fluorescent membrane potential (MP) dye. Cells were carried in growth media containing 90% DMEM, 10% FBS, 250 mcg/mL G418 and 1 mcg/mL puromycin for no more than 15 passages.
(§3) Prior to testing, cells were counted and dispensed at 14,000 cells per well (Y1, Y4 and Y5) or 28,000 cells per well (Y2) into black 384 well Poly-D-Lysine plates at 20 mcL per well. Covered plates were then incubated at room temperature for 30 minutes followed by an overnight incubation at 37° C. in 5% C02. The following day, media was removed and wells were washed once with 40 mcL Dulbecco's phosphate buffered saline. […] Ten microliters of experimental peptide or peptide standard was added in triplicate to wells and incubated for 50 minutes at room temperature in the dark. Following this incubation step, plates were read again as before (final read).
(§4) NPY receptor activation, leading to a reduction in intracellular cAMP levels, is detected as a decrease in isoproteranol induced fluorescent signal. Peptide standard and experimental values were initially transformed in excel using the formula: final read/initial read. Transformed values were then normalized to receptor specific standard values (1×10−13 M minimum and 1×10−7 M maximum) using the formula: (test value−standard minavg)/(standard maxavg−standard minavg)*100. […] Normalized data was analyzed from triplicate tests and used to estimate the EC50 for each test peptide on each receptor. Data was fit in GraphPad Prism software (v8.2.1) using a 3-parameter logistic curve model: Y=Bottom+(Top−Bottom)/(1+10^((LogEC50−X))). EC50 values were converted to pEC50 values using the formula: pEC50=−Log(EC50).

human Y2 receptor = biological target: T2, human Y2 receptor (Homo sapiens, UniProt P49146); assay: as above; assay type: cell-based; details: NPY2R pEC50, HEK-CNG cells; standard PYY(3-36); species (human or rat) not given
T2 sequence (P49146 1-381): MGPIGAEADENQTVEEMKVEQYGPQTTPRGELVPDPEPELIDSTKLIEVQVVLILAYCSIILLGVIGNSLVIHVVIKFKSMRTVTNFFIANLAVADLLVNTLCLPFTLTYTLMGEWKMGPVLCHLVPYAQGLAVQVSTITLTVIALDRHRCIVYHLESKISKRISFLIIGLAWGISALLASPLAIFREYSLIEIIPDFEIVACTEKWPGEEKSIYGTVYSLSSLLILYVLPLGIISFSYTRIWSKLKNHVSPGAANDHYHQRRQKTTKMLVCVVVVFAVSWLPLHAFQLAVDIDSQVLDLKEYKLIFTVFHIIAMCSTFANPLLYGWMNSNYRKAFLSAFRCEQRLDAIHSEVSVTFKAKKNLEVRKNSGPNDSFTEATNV
Source text: as §1, §2, §3, §4

Structure (SMILES) | EC50 (human Y5 receptor) | EC50 (human Y2 receptor)
CC(C)C[C@H](NC(=O)[C@H](CC(=O)O)NC(=O)[C@H](CCCCN)NC(=O)[C@H](Cc1ccc(O)cc1)NC(=O)[C@H](Cc1ccc(O)cc1)NC(=O)[C@H](CCCNC(=N)N)NC(=O)[C@H](CO)NC(=O)[C@H](Cc1c[nH]c2ccccc12)NC(=O)[C@H](CCC(=O)O)NC(=O)[C@H](CCC(=O)O)NC(=O)[C@@H]1CCCN1C(=O)[C@H](CO)NC(=O)[C@H](C)NC(=O)[C@H](CC(=O)O)NC(=O)[C@H](CCCCNC(=O)CC[C@H](NC(=O)CC[C@H](NC(=O)CCCCCCCCCCCCCCCCCCC(=O)O)C(=O)O)C(=O)O)NC(=O)CNC(=O)[C@@H]1CCCN1C(=O)[C@H](CCCCN)NC(=O)[C@H](CCC(=O)O)NC(=O)[C@@H]1CCCN1C(=O)[C@H](CCCCN)NC(=O)[C@@H]1CCCN1)C(=O)N[C@@H](CCCNC(=N)N)C(=O)N[C@@H](Cc1c[nH]cn1)C(=O)N[C@@H](Cc1ccc(O)cc1)C(=O)N[C@@H](CC(C)C)C(=O)N[C@@H](CC(N)=O)C(=O)N[C@@H](Cc1c[nH]c2ccccc12)C(=O)N[C@@H](CC(C)C)C(=O)N[C@H](C(=O)N[C@@H](CCCNC(=N)N)C(=O)N[C@@H](CCC(N)=O)C(=O)N[C@@H](CCCNC(=N)N)C(=O)N[C@@H](Cc1ccccc1)C(N)=O)[C@@H](C)O [Compound A75] | 0.501 nM | –
CC(C)C[C@H](NC(=O)[C@H](CC(=O)O)NC(=O)[C@H](CCCCN)NC(=O)[C@H](Cc1ccc(O)cc1)NC(=O)[C@H](Cc1ccc(O)cc1)NC(=O)[C@H](CCCNC(=N)N)NC(=O)[C@H](CC(N)=O)NC(=O)[C@H](Cc1c[nH]c2ccccc12)NC(=O)[C@H](CCC(=O)O)NC(=O)[C@H](CCCCN)NC(=O)[C@@H]1CCCN1C(=O)[C@H](CO)NC(=O)[C@H](C)NC(=O)[C@H](CC(=O)O)NC(=O)[C@H](CCC(=O)O)NC(=O)CNC(=O)[C@@H]1CCCN1C(=O)[C@H](CCCCNC(=O)CC[C@H](NC(=O)CC[C@H](NC(=O)CCCCCCCCCCCCCCCCCC(=O)O)C(=O)O)C(=O)O)NC(=O)[C@H](CCC(=O)O)NC(=O)[C@@H]1CCCN1C(=O)[C@H](CCCCN)NC(=O)[C@@H]1CCCN1)C(=O)N[C@@H](CCCNC(=N)N)C(=O)N[C@@H](Cc1c[nH]cn1)C(=O)N[C@@H](Cc1ccc(O)cc1)C(=O)N[C@@H](CC(C)C)C(=O)N[C@@H](CC(N)=O)C(=O)N[C@@H](Cc1c[nH]c2ccccc12)C(=O)N[C@@H](CC(C)C)C(=O)N[C@H](C(=O)N[C@@H](CCCNC(=N)N)C(=O)N[C@@H](CCC(N)=O)C(=O)N[C@@H](CCCNC(=N)N)C(=O)N[C@@H](Cc1ccccc1)C(N)=O)[C@@H](C)O [Compound A36] | 2 nM | 0.0126 nM
CC(C)C[C@H](NC(=O)[C@H](CC(=O)O)NC(=O)[C@H](CCCCN)NC(=O)[C@H](Cc1ccc(O)cc1)NC(=O)[C@H](Cc1ccc(O)cc1)NC(=O)[C@H](CCCNC(=N)N)NC(=O)[C@H](CC(N)=O)NC(=O)[C@H](Cc1c[nH]c2ccccc12)NC(=O)[C@H](CCC(=O)O)NC(=O)[C@H](CCCCN)NC(=O)[C@@H]1CCCN1C(=O)[C@H](CO)NC(=O)[C@H](C)NC(=O)[C@H](CC(=O)O)NC(=O)[C@H](CCCCN)NC(=O)CNC(=O)[C@@H]1CCCN1C(=O)[C@H](CCCCNC(=O)CC[C@H](NC(=O)CC[C@H](NC(=O)CCCCCCCCCCCCCCCCCCC(=O)O)C(=O)O)C(=O)O)NC(=O)[C@H](CCC(=O)O)NC(=O)[C@@H]1CCCN1C(=O)[C@H](CCCCN)NC(=O)[C@@H]1CCCN1)C(=O)N[C@@H](CCCNC(=N)N)C(=O)N[C@@H](Cc1c[nH]cn1)C(=O)N[C@@H](Cc1ccc(O)cc1)C(=O)N[C@@H](CC(C)C)C(=O)N[C@@H](CC(N)=O)C(=O)N[C@@H](Cc1c[nH]c2ccccc12)C(=O)N[C@@H](CC(C)C)C(=O)N[C@H](C(=O)N[C@@H](CCCNC(=N)N)C(=O)N[C@@H](CCC(N)=O)C(=O)N[C@@H](CCCNC(=N)N)C(=O)N[C@@H](Cc1ccccc1)C(N)=O)[C@@H](C)O [Compound A37] (H-PKPEK([γGlu-γGlu-C20 diacid])PGKDASPKEWNRYYKDLRHYLNWLTRQRF-NH2; N-terminus assumed) | 2.51 nM | 0.0158 nM
CC(C)C[C@H](NC(=O)[C@H](CC(=O)O)NC(=O)[C@H](CCCCN)NC(=O)[C@H](Cc1ccc(O)cc1)NC(=O)[C@H](Cc1ccc(O)cc1)NC(=O)[C@H](CCCNC(=N)N)NC(=O)[C@H](CC(=O)O)NC(=O)[C@H](Cc1c[nH]c2ccccc12)NC(=O)[C@H](CCC(=O)O)NC(=O)[C@H](CCCCN)NC(=O)[C@@H]1CCCN1C(=O)[C@H](CO)NC(=O)[C@H](C)NC(=O)[C@H](CC(=O)O)NC(=O)[C@H](CCC(=O)O)NC(=O)CNC(=O)[C@@H]1CCCN1C(=O)[C@H](CCCCNC(=O)CC[C@H](NC(=O)CC[C@H](NC(=O)CCCCCCCCCCCCCCCCCCC(=O)O)C(=O)O)C(=O)O)NC(=O)[C@H](CCC(=O)O)NC(=O)[C@@H]1CCCN1C(=O)[C@H](CCCCN)NC(=O)[C@@H]1CCCN1)C(=O)N[C@@H](CCCNC(=N)N)C(=O)N[C@@H](Cc1c[nH]cn1)C(=O)N[C@@H](Cc1ccc(O)cc1)C(=O)N[C@@H](CC(C)C)C(=O)N[C@@H](CC(N)=O)C(=O)N[C@@H](Cc1c[nH]c2ccccc12)C(=O)N[C@@H](CC(C)C)C(=O)N[C@H](C(=O)N[C@@H](CCCNC(=N)N)C(=O)N[C@@H](CCC(N)=O)C(=O)N[C@@H](CCCNC(=N)N)C(=O)N[C@@H](Cc1ccccc1)C(N)=O)[C@@H](C)O [Compound A78] | 3.16 nM | 0.0631 nM
CC(C)C[C@H](NC(=O)[C@H](CC(=O)O)NC(=O)[C@H](CCCCN)NC(=O)[C@H](Cc1ccc(O)cc1)NC(=O)[C@H](Cc1ccc(O)cc1)NC(=O)[C@H](CCCNC(=N)N)NC(=O)[C@H](CC(N)=O)NC(=O)[C@H](Cc1c[nH]c2ccccc12)NC(=O)[C@H](CCC(=O)O)NC(=O)[C@H](CCCCNC(=O)CC[C@H](NC(=O)CC[C@H](NC(=O)CCCCCCCCCCCCCCCCCCC(=O)O)C(=O)O)C(=O)O)NC(=O)[C@@H]1CCCN1C(=O)[C@H](CO)NC(=O)[C@H](C)NC(=O)[C@H](CC(=O)O)NC(=O)[C@H](CCCCN)NC(=O)CNC(=O)[C@@H]1CCCN1C(=O)[C@H](CCCCN)NC(=O)[C@H](CCC(=O)O)NC(=O)[C@@H]1CCCN1C(=O)[C@H](CCCCN)NC(=O)[C@@H]1CCCN1)C(=O)N[C@@H](CCCNC(=N)N)C(=O)N[C@@H](Cc1c[nH]cn1)C(=O)N[C@@H](Cc1ccc(O)cc1)C(=O)N[C@@H](CC(C)C)C(=O)N[C@@H](CC(N)=O)C(=O)N[C@@H](Cc1c[nH]c2ccccc12)C(=O)N[C@@H](CC(C)C)C(=O)N[C@H](C(=O)N[C@@H](CCCNC(=N)N)C(=O)N[C@@H](CCC(N)=O)C(=O)N[C@@H](CCCNC(=N)N)C(=O)N[C@@H](Cc1ccccc1)C(N)=O)[C@@H](C)O [Compound A70] (H-PKPEKPGKDASPK([γGlu-γGlu-C20 diacid])EWNRYYKDLRHYLNWLTRQRF-NH2; N-terminus assumed) | 2 nM | 0.0398 nM

Source: patent US12122816B2, “Long acting peptide tyrosine tyrosine (PYY) analogs and methods of use” (Intarcia Therapeutics, Inc., priority 2020, dated 2024)
